# Measured values reported in the supplement of paper PMC10307832.
# Tests used:
# Assay in all cases: relative viability (nuclei count vs DMSO), 5 days (fraction); higher = more cells survive
# [1] = test system: HCC-44
# Summary of the method: (§1)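 Each reported value is a median over duplicate plates. It expresses relative viability: treated-well nuclei count divided by vehicle-well nuclei count. Lung cancer cell lines in 1536-well plates were dosed by pin tool a day after seeding, alone with one drug or with a fixed anchor-drug dose plus five library-drug doses (not always all listed) in √10 steps, and nuclei were counted after 5 days.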
# [2] = test system: EPLC-272H
# Summary of the method: as §1
# [3] = test system: NCI-H1666
# Summary of the method: as §1
# [4] = test system: NCI-H2342
# Summary of the method: as §1
# [5] = test system: NCI-H650
# Summary of the method: as §1
# [6] = test system: LU99A
# Summary of the method: as §1
# [7] = test system: LOU-NH91
# Summary of the method: as §1
# [8] = test system: NCI-H2087
# Summary of the method: as §1
# [9] = test system: 201T
# Summary of the method: as §1
# [10] = test system: NCI-H2170
# Summary of the method: as §1
# [11] = test system: H3255
# Summary of the method: as §1
# [12] = test system: NCI-H1975
# Summary of the method: as §1
# [13] = test system: EKVX
# Summary of the method: as §1
# [14] = test system: NCI-H647
# Summary of the method: as §1
# [15] = test system: PC-3 [JPC-3]
# Summary of the method: as §1
# [16] = test system: SW 1573
# Summary of the method: as §1
# [17] = test system: HCC-827
# Summary of the method: as §1
# [18] = test system: BEN
# Summary of the method: as §1
# [19] = test system: NCI-H1437
# Summary of the method: as §1
# [20] = test system: LCLC-97TM1
# Summary of the method: as §1
# [21] = test system: COR-L 105
# Summary of the method: as §1
# [22] = test system: NCI-H2085
# Summary of the method: as §1
smiles,measurement,setting,value
CC(=O)O[C@@]12CO[C@@H]1C[C@H](O)[C@@]1(C)C(=O)[C@H](O)C3=C(C)[C@@H](OC(=O)[C@H](O)[C@@H](NC(=O)OC(C)(C)C)c4ccccc4)C[C@@](O)([C@@H](OC(=O)c4ccccc4)[C@H]21)C3(C)C [Docetaxel] + CC(=O)Nc1cccc(-n2c(=O)n(C3CC3)c(=O)c3c(Nc4ccc(I)cc4F)n(C)c(=O)c(C)c32)c1 [Trametinib] (partner 0.02 µM),relative viability,[1]; first compound 0.0002 µM,1.04
same,relative viability,[1]; first compound 0.000632 µM,1
same,relative viability,[1]; first compound 0.002 µM,1.07
same,relative viability,[1]; first compound 0.006325 µM,0.577
same,relative viability,[1]; first compound 0.02 µM,0.472
same,relative viability,[2]; first compound 0.0002 µM,0.32
same,relative viability,[2]; first compound 0.000632 µM,0.276
same,relative viability,[2]; first compound 0.006325 µM,0.136
same,relative viability,[2]; first compound 0.02 µM,0.0951
same,relative viability,[3]; first compound 0.0002 µM,0.846
same,relative viability,[3]; first compound 0.000632 µM,0.695
same,relative viability,[3]; first compound 0.002 µM,0.645
same,relative viability,[3]; first compound 0.006325 µM,0.771
same,relative viability,[3]; first compound 0.02 µM,0.521
same,relative viability,[4]; first compound 0.0002 µM,0.898
same,relative viability,[4]; first compound 0.000632 µM,0.836
same,relative viability,[4]; first compound 0.002 µM,0.567
same,relative viability,[4]; first compound 0.006325 µM,0.672
same,relative viability,[4]; first compound 0.02 µM,0.483
same,relative viability,[5]; first compound 0.0002 µM,0.932
same,relative viability,[5]; first compound 0.000632 µM,0.644
same,relative viability,[5]; first compound 0.002 µM,0.318
same,relative viability,[5]; first compound 0.006325 µM,0.295
same,relative viability,[5]; first compound 0.02 µM,0.16
same,relative viability,[6]; first compound 0.0002 µM,0.53
same,relative viability,[6]; first compound 0.000632 µM,0.561
same,relative viability,[6]; first compound 0.002 µM,0.346
same,relative viability,[6]; first compound 0.006325 µM,0.3
same,relative viability,[7]; first compound 0.0002 µM,0.766
same,relative viability,[7]; first compound 0.000632 µM,0.783
same,relative viability,[7]; first compound 0.002 µM,0.607
same,relative viability,[7]; first compound 0.006325 µM,0.449
same,relative viability,[7]; first compound 0.02 µM,0.354
same,relative viability,[8]; first compound 0.0002 µM,0.159
same,relative viability,[8]; first compound 0.000632 µM,0.208
same,relative viability,[8]; first compound 0.002 µM,0.181
same,relative viability,[8]; first compound 0.006325 µM,0.118
same,relative viability,[8]; first compound 0.02 µM,0.0893
same,relative viability,[9]; first compound 0.0002 µM,0.7
same,relative viability,[9]; first compound 0.000632 µM,0.713
same,relative viability,[9]; first compound 0.002 µM,0.644
same,relative viability,[9]; first compound 0.006325 µM,0.498
same,relative viability,[9]; first compound 0.02 µM,0.366
same,relative viability,[10]; first compound 0.0002 µM,0.887
same,relative viability,[10]; first compound 0.000632 µM,0.848
same,relative viability,[10]; first compound 0.002 µM,0.746
same,relative viability,[10]; first compound 0.006325 µM,0.222
same,relative viability,[10]; first compound 0.02 µM,0.167
same,relative viability,[11]; first compound 0.0002 µM,0.554
same,relative viability,[11]; first compound 0.000632 µM,0.635
same,relative viability,[11]; first compound 0.002 µM,0.52
same,relative viability,[11]; first compound 0.006325 µM,0.361
same,relative viability,[11]; first compound 0.02 µM,0.303
same,relative viability,[12]; first compound 0.0002 µM,0.386
same,relative viability,[12]; first compound 0.000632 µM,0.263
same,relative viability,[12]; first compound 0.002 µM,0.241
same,relative viability,[12]; first compound 0.006325 µM,0.167
same,relative viability,[12]; first compound 0.02 µM,0.148
same,relative viability,[13]; first compound 0.0002 µM,0.343
same,relative viability,[13]; first compound 0.000632 µM,0.358
same,relative viability,[13]; first compound 0.002 µM,0.185
same,relative viability,[13]; first compound 0.006325 µM,0.286
same,relative viability,[13]; first compound 0.02 µM,0.131
same,relative viability,[14]; first compound 0.0002 µM,0.331
same,relative viability,[14]; first compound 0.000632 µM,0.361
same,relative viability,[14]; first compound 0.002 µM,0.178
same,relative viability,[14]; first compound 0.006325 µM,0.118
same,relative viability,[14]; first compound 0.02 µM,0.0816
same,relative viability,[15]; first compound 0.0002 µM,0.684
same,relative viability,[15]; first compound 0.000632 µM,0.701
same,relative viability,[15]; first compound 0.002 µM,0.604
same,relative viability,[15]; first compound 0.006325 µM,0.431
same,relative viability,[15]; first compound 0.02 µM,0.279
same,relative viability,[16]; first compound 0.0002 µM,0.467
same,relative viability,[16]; first compound 0.000632 µM,0.307
same,relative viability,[16]; first compound 0.002 µM,0.165
same,relative viability,[16]; first compound 0.006325 µM,0.192
same,relative viability,[16]; first compound 0.02 µM,0.108
same,relative viability,[17]; first compound 0.0002 µM,0.545
same,relative viability,[17]; first compound 0.000632 µM,0.524
same,relative viability,[17]; first compound 0.002 µM,0.376
same,relative viability,[17]; first compound 0.006325 µM,0.272
same,relative viability,[17]; first compound 0.02 µM,0.189
same,relative viability,[18]; first compound 0.0002 µM,1.08
same,relative viability,[18]; first compound 0.000632 µM,1.04
same,relative viability,[18]; first compound 0.002 µM,0.763
same,relative viability,[18]; first compound 0.006325 µM,0.419
same,relative viability,[18]; first compound 0.02 µM,0.322
same,relative viability,[19]; first compound 0.0002 µM,0.528
same,relative viability,[19]; first compound 0.000632 µM,0.501
same,relative viability,[19]; first compound 0.002 µM,0.264
same,relative viability,[19]; first compound 0.006325 µM,0.216
same,relative viability,[20]; first compound 0.0002 µM,0.171
same,relative viability,[20]; first compound 0.000632 µM,0.195
same,relative viability,[20]; first compound 0.002 µM,0.148
same,relative viability,[20]; first compound 0.006325 µM,0.108
same,relative viability,[20]; first compound 0.02 µM,0.08
same,relative viability,[21]; first compound 0.0002 µM,0.399
same,relative viability,[21]; first compound 0.000632 µM,0.445
same,relative viability,[21]; first compound 0.002 µM,0.428
same,relative viability,[21]; first compound 0.006325 µM,0.339
same,relative viability,[21]; first compound 0.02 µM,0.392
same,relative viability,[22]; first compound 0.0002 µM,0.503
same,relative viability,[22]; first compound 0.000632 µM,0.513
same,relative viability,[22]; first compound 0.002 µM,0.324
same,relative viability,[22]; first compound 0.006325 µM,0.329
same,relative viability,[22]; first compound 0.02 µM,0.199
